Laboratory results taken from PubChem BioAssay AID1919006 (Molecular Pharmacology Branch, DTP, NCI, 2023).

Test system: 885512-296-R-J2-PDC complex spheroid growth, % test/control
Experiment: Anticancer human tumor 885512-296-R-J2-PDC patient-derived breast carcinoma cell line growth inhibition [AhR]
Settings: for IC50: curve of first compound; for viability, T/C: stronger effect = lower value
Excerpt: Multicellular complex tumor spheroid response to aryl hydrocarbon receptor antagonists in combination with a variety of drugs and investigational agents in selected tumor cell lines
The current study was undertaken to assess response to aryl hydrocarbon receptor antagonists in combination with standard-of-care drugs and investigational agents in solid tumor complex spheroid models. Complex spheroids include a stromal component modeled by human endothelial cells (HUVEC) and fibroblasts modeled by human mesenchymal stem cells (MSCs). The concentration ranges selected for each drug and investigational agent were based upon clinically achievable concentrations if the clinical Cmax of the agent was known.
Compounds. The drugs and investigational agents: BAY 2416964 (NSC825713), GNF351 (NSC835774), CH-223191 (NSC835775), CPI-455 (NSC825282), aza-TdCyd (NSC777586), decitabine (NSC127716), belinostat (NSC758774), entinostat (NSC756642), pevonedistat (NSC761192), tazemetostat (NSC777109), talazoparib (NSC765396), olaparib (NSC753686), selinexor (NSC780203), nedisertib (M3814, NSC802822), bortezomib (NSC756655), venetoclax (NSC766270), doxorubicin (NSC123127), elimusertib (BAY189344, NSC800525), ceralasertib (AZD6738, NSC777638), TAK-243 (NSC785004), alisertib (NSC759677), etoposide (NSC141540), topotecan (NSC609699), eribulin (NSC707389), gemcitabine (NSC613327), carboplatin (NSC241240), cisplatin (NSC119875), and SN-38 (NSC673596) were obtained from the National Cancer Institute (NCI) Developmental Therapeutics Program Chemical Repository (32). The FDA-approved anticancer drug set is available from the Developmental Therapeutics Program at https://dtp.cancer.gov/organization/dscb/obtaining/available plates.htm. […] The stock solutions were prepared in dimethyl sulfoxide (DMSO, Sigma-Aldrich, St. Louis, MO, cat. D2650), except for the platinum compounds which were prepared in saline (Quality Biological, Gaithersburg, MD, cat. 114-055-101), at 800-fold the tested concentration and stored at -70 degrees C prior to their use. All drugs and investigational agents were tested over a range starting from a high concentration at or near the clinical Cmax and decreasing in half-log increments. If the clinical Cmax for an agent had not been determined, the highest concentration tested was 10 microM (Table 1).
Cell Culture. All cells were maintained in an incubator at 37 degrees C and 5% CO2 with 95% humidity. The PDC lines were cultured according to standard operating procedures established by the NCI PDMR (https://pdmr.cancer.gov). Briefly, all PDCs were thawed and cultured in Matrigel-coated flasks prepared with a working solution of 1X Ham's F-12 nutrient mix, without supplementation (Invitrogen, Waltham, MA, cat. 11765054), 100 U/mL penicillin-streptomycin (Invitrogen, cat. 15140122), and 2.5% Matrigel (Corning Inc., Corning, NY, cat. 354248) for the first three passages. All PDCs were cultured in complete DMEM/F-12 media containing advanced DMEM/F-12 (Invitrogen, cat. 12634028), 4.9% defined fetal bovine serum, heat inactivated (HyClone Laboratories Inc., Logan, UT, cat. SH30070.03HI), 389 ng/mL hydrocortisone (Sigma-Aldrich, cat. H4001), 9.7 ng/mL human EGF recombinant protein (Invitrogen, cat. PHG0313), 23.4 microg/mL adenine (Sigma-Aldrich, cat. A2786), 97.3 U/mL penicillin-streptomycin (Invitrogen, cat. 15140122), 1.9 mM L-glutamine (Invitrogen, cat. 25030081), and 9.7 microM Y-27632 dihydrochloride (Tocris Bioscience, Bristol, United Kingdom, cat. 1254). The PDCs were cultured in complete DMEM/F12 media without 10 microM Y-27632 dihydrochloride for at least two passages prior to the screen. The established cell lines NCI-H1341 and […] were cultured in DMEM/F-12, HEPES (Invitrogen, cat. 11330032), 5% defined fetal bovine serum (HyClone Laboratories Inc., cat. SH30070.03), ITS premix universal culture supplement [insulin (5 microg/mL), transferrin (5 microg/mL), and selenious acid (5 ng/mL)] […]

[1] = second compound 0.1 µM, first compound 0.0316 µM
[2] = second compound 0.1 µM, first compound 0.1 µM
[3] = second compound 0.1 µM, first compound 0.316 µM
[4] = second compound 0.1 µM, first compound 1 µM
[5] = second compound 0.1 µM, first compound 3.16 µM
[6] = second compound 0.1 µM, first compound 10 µM
[7] = second compound 0.316 µM, first compound 0.0316 µM
[8] = second compound 0.316 µM, first compound 0.1 µM
[9] = second compound 0.316 µM, first compound 0.316 µM
[10] = second compound 0.316 µM, first compound 1 µM
[11] = second compound 0.316 µM, first compound 3.16 µM
[12] = second compound 0.316 µM, first compound 10 µM
[13] = second compound 1 µM, first compound 0.0316 µM
[14] = second compound 1 µM, first compound 0.1 µM
[15] = second compound 1 µM, first compound 0.316 µM
[16] = second compound 1 µM, first compound 1 µM
[17] = second compound 1 µM, first compound 3.16 µM
[18] = second compound 1 µM, first compound 10 µM
[19] = second compound 3.16 µM, first compound 0.0316 µM
[20] = second compound 3.16 µM, first compound 0.1 µM
[21] = second compound 3.16 µM, first compound 0.316 µM
[22] = second compound 3.16 µM, first compound 1 µM
[23] = second compound 3.16 µM, first compound 3.16 µM
[24] = second compound 3.16 µM, first compound 10 µM
[25] = second compound 10 µM, first compound 0.0316 µM
[26] = second compound 10 µM, first compound 0.1 µM
[27] = second compound 10 µM, first compound 0.316 µM
[28] = second compound 10 µM, first compound 1 µM
[29] = second compound 10 µM, first compound 3.16 µM
[30] = second compound 10 µM, first compound 10 µM
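Further: spheroids exposed to compounds for seven days.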

SMILES	IC50 (second compound 0.1 µM) [nM]	IC50 (second compound 0.316 µM) [nM]	IC50 (second compound 1 µM) [nM]	IC50 (second compound 3.16 µM) [nM]	IC50 (second compound 10 µM) [nM]	viability, T/C [1] [%]	viability, T/C [2] [%]	viability, T/C [3] [%]	viability, T/C [4] [%]	viability, T/C [5] [%]	viability, T/C [6] [%]	viability, T/C [7] [%]	viability, T/C [8] [%]	viability, T/C [9] [%]	viability, T/C [13] [%]	viability, T/C [14] [%]	viability, T/C [19] [%]	viability, T/C [20] [%]	viability, T/C [25] [%]	viability, T/C [26] [%]	other results
CC1(C)CCC(CN2CCN(c3ccc(C(=O)NS(=O)(=O)c4ccc(NCC5CCOCC5)c([N+](=O)[O-])c4)c(Oc4cnc5[nH]ccc5c4)c3)CC2)=C(c2ccc(Cl)cc2)C1 + CC(CO)NC(=O)c1cc(-c2ccc(Cl)cc2)nn(-c2cnn(C)c2)c1=O	6340	7190	7580	7840	8440	111	105	102	91.7	70.7	36.4	96.3	111	100	96.7	108	102	118	106	99.4	viability, T/C [10]: 96.5%; viability, T/C [11]: 70.6%; viability, T/C [12]: 41.7%; viability, T/C [15]: 112%; viability, T/C [16]: 99.7%; viability, T/C [17]: 78.6%; viability, T/C [18]: 41%; viability, T/C [21]: 103%; viability, T/C [22]: 100%; viability, T/C [23]: 81.5%; viability, T/C [24]: 41.6%; viability, T/C [27]: 103%; viability, T/C [28]: 103%; viability, T/C [29]: 90.8%; viability, T/C [30]: 42.6%
COc1cc(Nc2ncc3c(n2)-c2ccc(Cl)cc2C(c2c(F)cccc2OC)=NC3)ccc1C(=O)O + CC(CO)NC(=O)c1cc(-c2ccc(Cl)cc2)nn(-c2cnn(C)c2)c1=O	2440	234	456	1350	> 10000	53	48.3	51.4	57.6	46.4	48.3	54.9	45.5	55	57.6	51.2	59.6	55.5	48.5	59.5	viability, T/C [10]: 43.3%; viability, T/C [11]: 45%; viability, T/C [12]: 37%; viability, T/C [15]: 55.7%; viability, T/C [16]: 46.7%; viability, T/C [17]: 43%; viability, T/C [18]: 50.2%; viability, T/C [21]: 51.2%; viability, T/C [22]: 55.5%; viability, T/C [23]: 44.6%; viability, T/C [24]: 46.2%; viability, T/C [27]: 58.4%; viability, T/C [28]: 62.3%; viability, T/C [29]: 56.2%; viability, T/C [30]: 50.5%
Cn1ncnc1C1c2n[nH]c(=O)c3cc(F)cc(c23)NC1c1ccc(F)cc1 (stereo not given) + CC(CO)NC(=O)c1cc(-c2ccc(Cl)cc2)nn(-c2cnn(C)c2)c1=O	> 100	> 100	> 100	> 100	> 100	87.1	69.1					73	63.9		79.1	64.7	84.9	64.6	67.1	51.1	viability, T/C (second compound 0.1 µM, first compound 0.000316 µM): 107%; viability, T/C (second compound 0.1 µM, first compound 0.001 µM): 108%; viability, T/C (second compound 0.1 µM, first compound 0.00316 µM): 103%; viability, T/C (second compound 0.1 µM, first compound 0.01 µM): 96.6%; viability, T/C (second compound 0.316 µM, first compound 0.000316 µM): 102%; viability, T/C (second compound 0.316 µM, first compound 0.001 µM): 96.9%; viability, T/C (second compound 0.316 µM, first compound 0.00316 µM): 98.5%; viability, T/C (second compound 0.316 µM, first compound 0.01 µM): 107%; viability, T/C (second compound 1 µM, first compound 0.000316 µM): 104%; viability, T/C (second compound 1 µM, first compound 0.001 µM): 96.4%; viability, T/C (second compound 1 µM, first compound 0.00316 µM): 101%; viability, T/C (second compound 1 µM, first compound 0.01 µM): 89.3%; viability, T/C (second compound 3.16 µM, first compound 0.000316 µM): 90.1%; viability, T/C (second compound 3.16 µM, first compound 0.001 µM): 101%; viability, T/C (second compound 3.16 µM, first compound 0.00316 µM): 107%; viability, T/C (second compound 3.16 µM, first compound 0.01 µM): 82.9%; viability, T/C (second compound 10 µM, first compound 0.000316 µM): 96.7%; viability, T/C (second compound 10 µM, first compound 0.001 µM): 97.9%; viability, T/C (second compound 10 µM, first compound 0.00316 µM): 88.9%; viability, T/C (second compound 10 µM, first compound 0.01 µM): 79.2%
NS(=O)(=O)OCC1CC(n2ccc3c(NC4CCc5ccccc54)ncnc32)CC1O (stereo not given) + CC(CO)NC(=O)c1cc(-c2ccc(Cl)cc2)nn(-c2cnn(C)c2)c1=O	97	98.9	101	89.1	58.7	111	48.4	15	7.66	6.85	5.35	97.6	49.5	15.9	106	50.3	84.1	46.1	65.6	36.1	viability, T/C [10]: 7.66%; viability, T/C [11]: 5.71%; viability, T/C [12]: 6.67%; viability, T/C [15]: 17.3%; viability, T/C [16]: 7.69%; viability, T/C [17]: 7.18%; viability, T/C [18]: 7.68%; viability, T/C [21]: 16.7%; viability, T/C [22]: 7.54%; viability, T/C [23]: 7.16%; viability, T/C [24]: 7.08%; viability, T/C [27]: 19.3%; viability, T/C [28]: 8.18%; viability, T/C [29]: 6.74%; viability, T/C [30]: 6.33%
